Reference: patent US8961949B2, “Polymer-metal complex composite having MRI contrast ability and MRI contrasting and/or antitumor composition using the same” (Japan Science and Technology Agency, priority 2008, dated 2015)
“Also recorded” adds a separate entry of the source.

How the values were obtained:
[1] = test system: human pancreatic cancer cells (BxPC3); assay: in vivo MRI in orthotopic transplantation model of BxPC3; set-up: species or system Nude mice; settings: equal amounts of micelles and free Gd-DTPA
Experimental: Nude mice (female, 6 weeks of age) were laparotomized under inhalation anesthesia, injected with 0.1 ml of human pancreatic cancer cells (BxPC3) under the serous membrane of the pancreas and then kept for 1 month to prepare an orthotopic transplantation model. MRI was imaged with a 4.7 Tesla Superconductive Magnet Unit (Varian, Palo Alto, Calif.) VXR-MRI Console under the following imaging conditions: repetition time (TR): 500 ms, echo time (TE): 15 ms, field of view (FOV): 32 mm×32 mm, matrix size: 256×256, slice thickness: 2 mm to obtain Spin Echo T1w images. The mice were injected under 5% isoflurane inhalation anesthesia and maintained under 1.2% isoflurane anesthesia during imaging. […] Imaging was performed every 5 minutes during the first 1 hour after injection via the tail vein, then every 15 minutes for 4 hours. Moreover, an equal amount of free Gd-DTPA serving as a control was also injected via the tail vein and imaged in the same manner. The resulting images were analyzed by Mathematica (Wolfram Research Inc.) and Excel (Microsoft, Inc.).

[2] = blood at 1, 4, 8 and 24 hours after tail vein injection of 0.2 ml
Text: After collection, the blood was rapidly mixed with heparin to prevent coagulation, and then centrifuged to collect plasma only. The collected plasma was mixed with 90% HNO3, heated and dried, dissolved in 5N HCl, and then diluted appropriately, followed by ICP-MS to determine Gd and Pt contents.

[3] = test system: human pancreatic cancer cells (BxPC3); assay: antitumor effect (tumor size) on subcutaneous BxPC3 tumor; format: in vivo, Nude mice; settings: Pt 8 mg/ml

| Compound | contrast enhancement / intensity in tumor [1] | residual drug content in plasma / retention in blood [2] | antitumor effect (tumor size), words ([3]; 0.2 ml i.v. on day 0, 2 and 4) | antitumor effect (tumor size), words ([3]; 0.2 ml i.v. on day 0, 2 and 4, listed as Oxaliplatin) |
| --- | --- | --- | --- | --- |
| O=C([O-])CN(CCN(CC(=O)[O-])CC(=O)O)CCN(CC(=O)[O-])CC(=O)O.[Gd+3] [Gd-DTPA, gadolinium diethylene triamine pentaacetic acid] | little contrast enhancement; also recorded: little increase in intensity | rapidly disappear from plasma |  |  |
| O=C1[O][Pt]2([NH][C@@H]3CCCC[C@H]3[NH]2)[O]C1=O [oxaliplatin] |  | rapidly disappear from plasma | substantially the same tendency as the control | little therapeutic effect |
